Assay results taken from patent US10760052B2, “Method of inhibiting tau phosphorylation” (priority 2012, dated 2020).

How the values were obtained:
[1] = target: T1, FLNA-α7nAChR/TLR4 and Aβ42-α7nAChR complexes (Homo sapiens, UniProt P21333); assay: FLNA-α7nAChR/TLR4 and Aβ42-α7nAChR associations in AD and Aβ42-treated control lymphocytes; type: cell-based; details: 1 nM, 30 minutes
T1 construct: endogenous in cells; host or cells: lymphocytes of AD patients and control subjects
Procedure: Because lymphocytes contain α7nAChR and TLR4, whether the associations of these receptors with FLNA are increased in the lymphocytes of AD patients and whether Compound C0105 treatment ex vivo could disrupt these associations were assessed. Also assayed was the effect of Compound C0105 on Aβ42-α7nAChR complexes in AD lymphocytes and Aβ42-treated lymphocytes from age-matched control subjects.

[2] = test system: NMDAR; assay: ICV Aβ42 infusion mouse model: NMDAR signaling molecules; type: in vivo; details: 10 mg/kg twice daily
Procedure: NMDAR signaling and their interaction with synaptic anchoring protein, PSD-95 were compared in synaptosomes from treated mice. NMDAR activation and signaling was initiated by incubation of 6 slices with either 0.3 mM Mg^2+ containing KR (LMKR; basal) or LMKR containing 10 μM NMDA and 1 μM glycine at 37° C. for 30 minutes.
Ligand stimulation was terminated by the addition of 1 ml of ice-cold Ca^2+-free K-R containing mixture of protein phosphatase inhibitors, 0.5 mM EGTA and 0.1 mM EDTA. After harvesting, tissues were briefly centrifuged and homogenized in 0.25 ml of ice-cold immunoprecipitation buffer. The homogenates were centrifuged at 1000×g for 5 minutes (4° C.) and the supernatant (post-mitochondrial fraction) was sonicated for 10 seconds on ice.
The resultant lysates were cleared by centrifugation at 50,000×g for 5 minutes and diluted with 0.75 ml of immunoprecipitation buffer. Protein concentrations were measured by Bradford method (Bio-Rad).
To determine the NMDARs association with PSD-95 as well as NMDAR signaling, the levels of NMDAR subunits, PSD-95 and NMDAR-associated signaling molecules were measured in anti-NR1 immunoprecipitates. In these studies, brain tissue lysates (100 μg) were immunoprecipitated overnight (about 18 hours) at 4° C. with 2 μg of immobilized anti-NR1 onto covalently conjugated protein A-agarose beads (Pierce-ENDOGEN). […]

[3] = target: T2, TLR4-FLNA complex (Homo sapiens, UniProt P21333); assay: Postmortem human frontal cortex: TLR4-FLNA association; type: cell-based; details: AD and Aβ42-treated control tissue; 0.1 or 1 nM
T2 construct: from tissue; host or cells: postmortem frontal cortex slices / synaptosomes (AD and control subjects)
Procedure: (§1) Postmortem frontal cortex tissues were gradually thawed (from −80° C. to −20° C.) and were sliced using a chilled McIlwain tissue chopper (200 μm×200 μm×3 mm). […] Following two additional washes with 1 ml of ice-cold K-R, brain slices were suspended in 1 ml of K-R.
(§2) Incubation continued for 1 hour in the dark to minimize light destruction of the test agents. […] Reaction was terminated by the addition of 1.5 ml of ice-cold Ca^2+-free K-R. Tissue slices were harvested by a brief centrifugation and used as the tissue sources for various assays.

[4] = target: T3, α7nAChR-FLNA complex (Mus musculus, UniProt Q8BTM8); assay: ICV Aβ42 infusion mouse model: FLNA association with α7nAChR; type: in vivo; details: 10 mg/kg twice daily; prefrontal cortex and hippocampus
T3 construct: from tissue; host or cells: synaptosomes from prefrontal cortex and hippocampus of treated E129 mice
Procedure: . The anti-FLNA immunocomplexes were obtained by centrifugation, washed and dissociated using antigen elution buffer. […] The levels of FLNA-associated α7nAChRs and TLR4s were assessed by Western blotting and the blot stripped and re-probed for FLNA for immunoprecipitation/loading control.

[5] = target: T4, α7nAChR-FLNA complex (Rattus norvegicus, UniProt A0A8I5ZV49); assay: Aβ42-induced α7nAChR-FLNA association in rat frontal cortical synaptosomes (co-immunoprecipitation/Western blot); type: cell-based
T4 construct: from tissue; host or cells: rat frontal cortex synaptosomes
Text: The α7nAChR-FLNA complexes in the solubilized synaptosomes were immunoprecipitated with immobilized anti-FLNA and the α7nAChR and FLNA levels in the anti-FLNA immunoprecipitates determined by Western blotting (FIG. 2A) and quantified by densitometry (FIG. 2B). n=3. […] The letter designation “M” that accompanies many of the “C-series” compounds is omitted from FIG. 2, the remaining figures and most discussions of the figures and compounds hereinafter for ease in expression. Structural formulas of the compounds used in this and the other figures are provided hereinafter. […]

[6] = test system: insulin receptor (IR); assay: Postmortem human frontal cortex: IR activation and signaling; type: cell-based; details: AD and Aβ42-treated control brain slices; 1 nM
Procedure: IR activation and signaling were initiated by incubation of approximately 10 mg of in vitro treated brain slices with either KR (basal) or KR containing 1 nM insulin at 37° C. for 30 minutes. […] Ligand stimulation was terminated by the addition of 1 ml of ice-cold Ca^2+-free K-R containing 0.5 mM EGTA and 0.1 mM EDTA. Brain slices were harvested by a brief centrifugation and were homogenized in 0.25 ml of ice-cold immunoprecipitation buffer. The homogenates were centrifuged at 1000×g for 5 minutes (4° C.) and the supernatant (post-mitochondrial fraction) is sonicated for 10 seconds on ice. […] The resultant lysates are then cleared by centrifugation at 50,000×g for 5 minutes and diluted with 0.75 ml of immunoprecipitation buffer. Protein concentrations are measured by Bradford method (Bio-Rad).
The blots were stripped and re-probed with anti-IRβ to assess the loading as appropriate.

[7] = test system: IL-6, TNF-α and IL-1β; assay: ICV Aβ42 infusion mouse model: cytokine levels (fluorescence ELISA); type: in vivo
Procedure: Following centrifugation, the resultant lysate was then dilute with 500 μl (total volume 600 μl) and used as the source of cytokines.
Plates were washed 3 times with ice-cold 50 mM Tris HCl (pH 7.4) and incubated at 30° C. with 100 μl of lysate derived from the above mentioned tissues for 1 hour.
Plates were washed 3 times with ice-cold 50 mM Tris HCl (pH 7.4) and incubated at 30° C. with 0.5 μg/well un-conjugated rabbit anti-TNF-α, anti-IL-6 and anti-IL-1β for 1 hour. After two washes with 50 mM Tris HCl (pH 7.4), each well was incubated in 0.5 μg/well FITC-conjugated anti-rabbit IgG (human and mouse absorbed) for 1 hour at 30° C. Plates were washed twice with 200 μl ice-cold Tris HCl, pH 7.4 and the residual FITC signals were determined by multimode plate reader, DTX880 (Beckman). Each lysate was surveyed twice.

[8] = test system: α7nAChR; details: mouse, in vivo
[9] = test system: tau (pSer202, pThr231, pThr181); assay: ICV Aβ42 infusion mouse model: tau phosphorylation; type: in vivo; details: 10 mg/kg twice daily
Procedure: The levels of phosphorylated tau (pSer202tau, pThr231tau and pThr181tau) as well as total tau precipitated (loading controls) were assessed by Western blotting using specific antibodies directed against each of the phosphoepitopes and the anti-tau, respectively.

[10] = test system: α7nAChR (Aβ42 binding); assay: FITC-Aβ42 binding to biotinylated α7nAChR-containing SK-N-MC cell fragments; parameters: species or system human; details: added simultaneously, 30° C., 30 minutes
[11] = target: T5, α7nAChR-FLNA complex (Homo sapiens, UniProt P21333); assay: Postmortem human frontal cortex: α7nAChR-FLNA association; type: cell-based; details: AD and Aβ42-treated control tissue; 0.1 or 1 nM
T5 construct: from tissue; host or cells: postmortem frontal cortex slices / synaptosomes (AD and control subjects)
Procedure: as §1, §2

[12] = test system: NFT and Aβ42 aggregates; assay: ICV Aβ42 infusion mouse model: immunohistochemistry of NFT and Aβ42 aggregates; type: in vivo; details: 10 mg/kg twice daily
Procedure: One section was immunostained with anti-NFT or -PHF.
Brain tissues were fixed at 4° C. in 0.15 M phosphate-buffered 10% formalin, pH 7.4 for 2 weeks, paraffin embedded, serially sectioned at 5 μm, and processed for brightfield immunohistochemistry as described. The […] but not Aβ42-1. Specimens were examined using a Nikon FXA microscope with a Princeton Instruments CCD camera and recorded digitally.
The correlations between the amount of NFT/PHF immunoreactivity and Aβ42-positive material accumulated within mature neurons were also determined.

[13] = test system: NMDAR; type: in vivo, mouse; details: 10 mg/kg twice daily
[14] = target: T6, FLNA (Homo sapiens, UniProt P21333); assay: [3H]NLX competition binding to FLNA in A7 cell membranes; details: 0.5 nM [3H]NLX, N=4, read-out: IC50-L, inhibition of [3H]NLX binding
T6 construct: validate the use of that 5-mer peptide as a surrogate for the complete molecule in the assays carried out herein; host or cells: A7 cells

[15] = target: FLNA pentamer VAKGL of SEQ ID NO: 1 (Homo sapiens, UniProt P21333); assay: [3H]NLX displacement from biotinylated VAKGL peptide; details: Bn-VAKGL peptide; single IC50; N=4; read-out: IC50, inhibition of [3H]NLX binding
Procedure: Nonspecific binding was defined by 1 mM NTX. The reaction was terminated by addition of 1 ml of ice-cold binding medium. The [^3H]NLX-bound Bn-VAKGL was trapped by incubation with […] NeutrAvidin®-agarose (Thermo), followed by centrifugation. Following two 1.5 ml washes with PBS, the bound [^3H]NLX was determined using scintillation spectrometry. […] N=4.

T4 sequence (A0A8I5ZV49 entry or part of it, one chain of several): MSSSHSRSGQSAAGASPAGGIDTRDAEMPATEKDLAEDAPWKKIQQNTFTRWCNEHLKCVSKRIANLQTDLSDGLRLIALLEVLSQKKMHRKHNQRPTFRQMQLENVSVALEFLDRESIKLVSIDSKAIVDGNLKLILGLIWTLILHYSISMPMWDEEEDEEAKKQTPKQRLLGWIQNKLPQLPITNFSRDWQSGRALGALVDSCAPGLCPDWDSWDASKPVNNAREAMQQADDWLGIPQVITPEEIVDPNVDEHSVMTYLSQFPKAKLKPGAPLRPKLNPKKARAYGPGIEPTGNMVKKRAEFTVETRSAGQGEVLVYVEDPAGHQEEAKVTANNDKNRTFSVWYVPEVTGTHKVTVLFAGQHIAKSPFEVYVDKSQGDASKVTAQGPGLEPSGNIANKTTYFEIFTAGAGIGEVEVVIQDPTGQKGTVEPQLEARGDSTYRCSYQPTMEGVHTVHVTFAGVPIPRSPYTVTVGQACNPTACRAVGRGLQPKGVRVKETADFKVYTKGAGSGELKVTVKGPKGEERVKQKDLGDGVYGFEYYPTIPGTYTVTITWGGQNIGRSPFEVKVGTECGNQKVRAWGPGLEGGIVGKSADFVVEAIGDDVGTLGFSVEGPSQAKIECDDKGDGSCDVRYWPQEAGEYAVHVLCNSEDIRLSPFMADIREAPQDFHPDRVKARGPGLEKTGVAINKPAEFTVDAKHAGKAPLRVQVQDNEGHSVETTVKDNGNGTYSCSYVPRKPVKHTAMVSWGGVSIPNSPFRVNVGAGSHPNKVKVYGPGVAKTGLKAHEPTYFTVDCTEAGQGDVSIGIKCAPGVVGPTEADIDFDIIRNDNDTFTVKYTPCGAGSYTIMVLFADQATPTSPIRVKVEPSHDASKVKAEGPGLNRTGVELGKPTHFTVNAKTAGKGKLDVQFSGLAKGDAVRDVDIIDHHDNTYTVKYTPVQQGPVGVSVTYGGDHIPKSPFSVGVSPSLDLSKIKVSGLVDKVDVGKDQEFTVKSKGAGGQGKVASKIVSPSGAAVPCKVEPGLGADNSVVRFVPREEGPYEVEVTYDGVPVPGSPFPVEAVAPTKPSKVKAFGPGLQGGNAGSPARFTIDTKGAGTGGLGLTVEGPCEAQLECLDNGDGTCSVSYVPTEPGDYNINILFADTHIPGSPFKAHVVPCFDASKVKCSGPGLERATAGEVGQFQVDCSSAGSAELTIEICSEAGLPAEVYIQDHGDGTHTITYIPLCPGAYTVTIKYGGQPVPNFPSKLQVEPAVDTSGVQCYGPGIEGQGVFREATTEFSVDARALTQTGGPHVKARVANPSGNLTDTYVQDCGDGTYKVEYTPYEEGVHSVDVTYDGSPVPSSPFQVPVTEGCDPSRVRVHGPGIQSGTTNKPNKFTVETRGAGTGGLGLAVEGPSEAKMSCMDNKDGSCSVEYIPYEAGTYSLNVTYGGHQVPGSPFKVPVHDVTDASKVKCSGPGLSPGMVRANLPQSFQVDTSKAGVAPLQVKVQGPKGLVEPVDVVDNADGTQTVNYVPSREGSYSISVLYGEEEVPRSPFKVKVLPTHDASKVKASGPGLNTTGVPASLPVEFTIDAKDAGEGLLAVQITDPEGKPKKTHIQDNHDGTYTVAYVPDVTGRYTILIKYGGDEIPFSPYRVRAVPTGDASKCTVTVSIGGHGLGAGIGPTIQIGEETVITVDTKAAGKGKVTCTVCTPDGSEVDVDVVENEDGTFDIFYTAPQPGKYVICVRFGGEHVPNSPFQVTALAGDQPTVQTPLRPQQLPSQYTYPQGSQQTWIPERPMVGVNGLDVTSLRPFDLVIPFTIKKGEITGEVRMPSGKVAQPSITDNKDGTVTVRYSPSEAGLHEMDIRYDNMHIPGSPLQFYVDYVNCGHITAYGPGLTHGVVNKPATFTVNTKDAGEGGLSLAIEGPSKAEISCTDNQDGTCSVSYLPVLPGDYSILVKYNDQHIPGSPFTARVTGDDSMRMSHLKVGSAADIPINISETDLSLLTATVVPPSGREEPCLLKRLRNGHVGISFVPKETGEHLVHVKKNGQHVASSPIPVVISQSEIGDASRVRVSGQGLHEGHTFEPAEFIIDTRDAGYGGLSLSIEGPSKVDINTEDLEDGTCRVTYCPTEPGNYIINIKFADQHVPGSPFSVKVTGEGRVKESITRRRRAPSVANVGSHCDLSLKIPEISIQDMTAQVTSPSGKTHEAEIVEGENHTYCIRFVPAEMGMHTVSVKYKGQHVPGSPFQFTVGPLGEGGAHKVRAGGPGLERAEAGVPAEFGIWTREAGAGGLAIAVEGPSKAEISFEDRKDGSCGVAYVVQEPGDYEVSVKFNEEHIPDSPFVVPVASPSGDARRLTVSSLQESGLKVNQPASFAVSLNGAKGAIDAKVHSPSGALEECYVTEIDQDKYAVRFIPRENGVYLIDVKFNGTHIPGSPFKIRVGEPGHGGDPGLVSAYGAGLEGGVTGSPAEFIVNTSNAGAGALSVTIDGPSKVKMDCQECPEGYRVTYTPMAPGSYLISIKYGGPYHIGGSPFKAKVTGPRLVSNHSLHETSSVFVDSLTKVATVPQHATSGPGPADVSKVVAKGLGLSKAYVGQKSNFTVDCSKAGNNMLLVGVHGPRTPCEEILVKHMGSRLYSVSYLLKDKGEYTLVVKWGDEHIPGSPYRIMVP

Compound: CN1CCC2(CC1)NCC(=O)N2Cc1ccccc1 [Compound C0105]
- FLNA associations with α7nAChR and TLR4 in lymphocytes [1]: significantly reduced
- Levels of NMDAR signaling molecules co-immunoprecipitating with NR-1 [2]: normalized
- FLNA association with TLR4 [3]: reduces Aβ42-induced FLNA association with α7nAChR and TLR4
- Aβ42-induced increase in FLNA association with α7nAChR [4]: reduced Aβ42-induced increases in FLNA associations with both α7nAChR and TLR4
- α7nAChR-FLNA association (ratio α7nAChR/FLNA) ([5]; 1 or 10 nM compound, simultaneously or 10 minutes prior to Aβ42 (0.1 μM)): statistically different from Aβ42 alone
- α7nAChR-FLNA association ([5]; simultaneous administration with Aβ42): markedly reduced this coupling
- IR signaling assemblies [6]: Normalization of receptor function
- Aβ42-induced IL-6 production ([7]; 10 mg/kg twice daily): completely abolished
- Suppression of IL-1β level ([7]; 10 mg/kg twice daily): 80%
- Suppression of TNF-α level ([7]; 10 mg/kg twice daily): 86%
- Decrease of levels of IL-6, TNF-α and IL-1 ([7]; mice receiving C0105): 80-100%
- Aβ42-induced reduction in calcium influx after PNU282987 [8]: normalized
- Tau phosphorylation at three sites [9]: suppressed tau phosphorylation at all three phosphorylation sites
- Inhibition of FITC-Aβ42 binding ([10]; 0.1 nM compound): 52.3±3.7%
- Inhibition of FITC-Aβ42 binding ([10]; 1 nM compound): 55.1±3.0%
- Inhibition of FITC-Aβ42 binding ([10]; 10 nM compound): 56.5±4.2%
- FLNA association with α7nAChR [11]: reduces Aβ42-induced FLNA association with α7nAChR and TLR4
- Amyloid deposits (IHC, FCX and HP) [12]: prevents
- NFT formation (IHC, FCX and HP) [12]: prevents
- Aβ42-induced NMDAR dysfunction (calcium influx after NMDA and glycine) [13]: restored the Aβ42-induced NMDAR dysfunction
- IC50 [14]: 0.226 nM
- IC50 [15]: 0.00276 nM
